From patent US7312205B2, “Methods and compositions for inhibiting tumor growth” (Novelix Pharmaceuticals, Inc., priority 2003, dated 2007)

Experiments:
[1] = test system: liposarcoma line (ATCC HTB-92); test: Growth inhibition in liposarcoma line ATCC HTB-92 (cell survival vs untreated controls); format: cell-based
Text: (§1) Examples 1 and 2 show direct comparisons between comparative compound A (betulic acid) and a novel derivative (compound B) in paired growth assays (cell count decrease after 3 days after a single application of the indicated concentrations of the respective compounds on day 1).
Comparison of the efficacy of comparative compound (A) (betulic acid) with that of compound (B) (protected betulic acid trisester) in a liposarcoma line (ATCC HTB-92). The X-axis indicates the concentration in μg/ml of compounds A and B, respectively, the Y-axis gives the cell survival rate in percent of the untreated controls. […]

melanoma cell line 518A2 = test: Growth inhibition in melanoma cell line 518A2 (cell survival vs untreated controls); format: cell-based
Text: as §1
Comparison of compound (A) (betulic acid) with compound (B) (protected betulic acid trisester)—Growth inhibition in melanoma cell line 518A2 (obtained from Peter Schrier, Leiden, The Netherlands) […]. The X-axis indicates the concentration in μg/ml of compounds A and B, respectively, the Y-axis gives the cell survival rate in percent of the untreated controls.
Comparison of the effects of different betulic acid derivatives according to the invention and of the comparative compound (betulic acid), respectively, on various melanoma-sarcoma lines. The data each refer to cell survival rates in percent (mean values) as against untreated cell cultures.
Survival in percent as with all other data after 3 days of cell culture after a single application on day 1

[2] = liposarcoma ATCC HTB-92, 0.3 μg/ml
[3] = liposarcoma ATCC HTB-92, 0.6 μg/ml
[4] = liposarcoma ATCC HTB-92, 1 μg/ml
[5] = liposarcoma ATCC HTB-92, 1.25 μg/ml
[6] = liposarcoma ATCC HTB-92, 2.5 μg/ml
[7] = liposarcoma ATCC HTB-92, 5 μg/ml
[8] = liposarcoma ATCC HTB-92, 10 μg/ml

Structure (SMILES): C=C(C)[C@@H]1CC[C@]2(C(=O)O)CC[C@]3(C)[C@H](CC[C@@H]4[C@@]5(C)CC[C@H](O)C(C)(C)[C@@H]5CC[C@]43C)[C@@H]12 [A, betulic acid, reference compound]
- survival in % [1, 2]: 98.0%
- survival in % [1, 3]: 92.8%
- survival in % [1, 4]: 92.3%
- survival in % [1, 5]: 79.5%
- survival in % [1, 6]: 49.3%
- survival in % [1, 7]: 20.8%
- survival in % [1, 8]: 15.7%

Structure (SMILES): C=C(C)[C@@H]1CC[C@]2(C(=O)OCC(N)(CO)CO)CC[C@]3(C)[C@H](CC[C@@H]4[C@@]5(C)CC[C@H](OC(C)=O)C(C)(C)[C@@H]5CC[C@]43C)[C@@H]12 [Compound B, Acetyl betulic acid-2-amino-3-hydroxy-2-hydroxymethyl propyl ester]
- Survival in % melanoma (melanoma cell line 518A2; Test #1: stock 50 mg/ml in EtOH, 1.0 μg/ml, 3 days): 50%
- Survival in % melanoma (melanoma cell line 518A2; Test #1: stock 50 mg/ml in EtOH, 2.0 μg/ml, 3 days): 0.5%
- Survival in % melanoma (melanoma cell line 518A2; Test #1: stock 50 mg/ml in EtOH, 3.0 μg/ml, 3 days): 0.0%
- Survival in % melanoma (melanoma cell line 518A2; Test #1: stock 50 mg/ml in EtOH, 4.0 μg/ml, 3 days): 0.0%
- Survival in % melanoma (melanoma cell line 518A2; Test #2: inclusion compound, 5.9 mg/ml in 266 mg/ml HBC in H2O, 1.0 μg/ml, 3 days): 65%
- Survival in % melanoma (melanoma cell line 518A2; Test #2: inclusion compound, 5.9 mg/ml in 266 mg/ml HBC in H2O, 2.0 μg/ml, 3 days): 25%
- Survival in % melanoma (melanoma cell line 518A2; Test #2: inclusion compound, 5.9 mg/ml in 266 mg/ml HBC in H2O, 3.0 μg/ml, 3 days): 0.0%
- Survival in % melanoma (melanoma cell line 518A2; Test #2: inclusion compound, 5.9 mg/ml in 266 mg/ml HBC in H2O, 4.0 μg/ml, 3 days): 0.0%
- Survival in % melanoma (melanoma cell line 518A2; Test #3: inclusion compound, 20 mg/ml in 266 mg/ml HBC in 50% EtOH/50% H2O, 1.0 μg/ml, 3 days): 77%
- Survival in % melanoma (melanoma cell line 518A2; Test #3: inclusion compound, 20 mg/ml in 266 mg/ml HBC in 50% EtOH/50% H2O, 2.0 μg/ml, 3 days): 24%
- Survival in % melanoma (melanoma cell line 518A2; Test #3: inclusion compound, 20 mg/ml in 266 mg/ml HBC in 50% EtOH/50% H2O, 3.0 μg/ml, 3 days): 0.0%
- Survival in % melanoma (melanoma cell line 518A2; Test #3: inclusion compound, 20 mg/ml in 266 mg/ml HBC in 50% EtOH/50% H2O, 4.0 μg/ml, 3 days): 0.0%
- Survival in % melanoma (melanoma cell line 518A2; Test #4: inclusion compound, 25 mg/ml in 200 mg/ml HGC in 50% EtOH/50% H2O, 1.0 μg/ml, 3 days): 59%
- Survival in % melanoma (melanoma cell line 518A2; Test #4: inclusion compound, 25 mg/ml in 200 mg/ml HGC in 50% EtOH/50% H2O, 2.0 μg/ml, 3 days): 4%
- Survival in % melanoma (melanoma cell line 518A2; Test #4: inclusion compound, 25 mg/ml in 200 mg/ml HGC in 50% EtOH/50% H2O, 3.0 μg/ml, 3 days): 0.0%
- survival in % (melanoma cell line 518A2; melanoma 518A2, 0.3 μg/ml): 83.0%
- survival in % (melanoma cell line 518A2; melanoma 518A2, 0.6 μg/ml): 56.3%
- survival in % (melanoma cell line 518A2; melanoma 518A2, 1 μg/ml): 11.3%
- survival in % (melanoma cell line 518A2; melanoma 518A2, 1.25 μg/ml): 10.3%
- survival in % (melanoma cell line 518A2; melanoma 518A2, 2.5 μg/ml): 2.8%
- survival in % (melanoma cell line 518A2; melanoma 518A2, 5 μg/ml): 0.0%
- survival in % (melanoma cell line 518A2; melanoma 518A2, 10 μg/ml): 0.0%
- activity relative to comparative compound (A) (melanoma cell line 518A2; melanoma cell line 518A2, from ED50): up to 7 times
- survival in % [1, 2]: 89.5%
- survival in % [1, 3]: 70.7%
- survival in % [1, 4]: 12.0%
- survival in % [1, 5]: 2.9%
- survival in % [1, 6]: 3.0%
- survival in % [1, 7]: 0.0%
- survival in % [1, 8]: 0.0%

Structure (SMILES): C=C(C)[C@@H]1CC[C@]2(C(=O)NC(CO)(CO)CO)CC[C@]3(C)[C@H](CC[C@@H]4[C@@]5(C)CC[C@H](OC(C)=O)C(C)(C)[C@@H]5CC[C@]43C)[C@@H]12 [Compound C, Acetyl betulic acid-N-(1,1-bis(hydroxymethyl)-2-hydroxyethyl)formamide]
- Survival in % melanoma (melanoma cell line 518A2; melanoma 518A2, 0.25 μg/ml): 96%
- Survival in % melanoma (melanoma cell line 518A2; melanoma 518A2, 0.5 μg/ml): 93%
- survival in % (melanoma cell line 518A2; melanoma 518A2, 1 μg/ml): 67.5%
- survival in % [1, 2]: 96%
- survival in % [1, 3]: 82%
- survival in % [1, 4]: 81%
